Active and inactive are the calls of the source. No cut-off for these calls is given here.
Key:
Sialidase-3 = molecular target: T1, Sialidase-3 (Homo sapiens, UniProt Q9UQ49); experiment: Inhibition of Homo sapiens (human) NEU3 expressed in HEK293 cells using mixed ganglioside as substrate after 10 to 30 min by fluorometric analysis; format: cell-based
T1 sequence (Q9UQ49 whole entry): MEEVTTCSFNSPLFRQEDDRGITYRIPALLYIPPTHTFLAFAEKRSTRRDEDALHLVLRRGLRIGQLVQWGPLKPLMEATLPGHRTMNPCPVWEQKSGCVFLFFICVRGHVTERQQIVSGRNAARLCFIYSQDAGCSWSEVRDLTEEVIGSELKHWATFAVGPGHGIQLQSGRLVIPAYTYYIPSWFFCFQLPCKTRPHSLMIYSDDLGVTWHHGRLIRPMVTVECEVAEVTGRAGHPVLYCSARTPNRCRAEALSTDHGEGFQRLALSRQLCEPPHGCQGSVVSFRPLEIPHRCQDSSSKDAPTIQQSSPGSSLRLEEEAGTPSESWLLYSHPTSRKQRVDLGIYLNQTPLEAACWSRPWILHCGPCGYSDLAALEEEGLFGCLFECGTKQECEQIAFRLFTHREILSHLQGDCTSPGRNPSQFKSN

[1] = molecular target: Sialidase-1 (Homo sapiens) (UniProt Q99519); experiment: Inhibition of Homo sapiens (human) NEU1 expressed in HEK293 cells using 4MU-NeuAc as substrate at 1 mM after 10 to 30 min by fluorometric analysis; format: cell-based
Sialidase-4 = molecular target: T2, Sialidase-4 (Homo sapiens, UniProt Q8WWR8); experiment: Inhibition of Homo sapiens (human) NEU4 expressed in HEK293 cells using 4MU-NeuAc as substrate after 10 to 30 min by fluorometric analysis; format: cell-based
T2 sequence (Q8WWR8 whole entry): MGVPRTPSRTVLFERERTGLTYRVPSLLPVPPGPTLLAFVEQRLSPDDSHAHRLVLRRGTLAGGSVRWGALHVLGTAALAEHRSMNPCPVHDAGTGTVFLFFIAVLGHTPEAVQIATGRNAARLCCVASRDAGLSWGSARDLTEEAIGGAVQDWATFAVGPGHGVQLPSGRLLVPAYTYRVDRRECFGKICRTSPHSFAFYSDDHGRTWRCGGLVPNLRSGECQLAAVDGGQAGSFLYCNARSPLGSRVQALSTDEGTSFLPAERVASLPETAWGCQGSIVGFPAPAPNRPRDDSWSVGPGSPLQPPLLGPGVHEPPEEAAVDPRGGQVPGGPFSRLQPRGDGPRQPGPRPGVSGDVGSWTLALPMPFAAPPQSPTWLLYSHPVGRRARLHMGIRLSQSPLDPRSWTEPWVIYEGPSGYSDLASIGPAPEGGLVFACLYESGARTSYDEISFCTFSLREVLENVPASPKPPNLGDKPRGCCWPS

[2] = molecular target: Sialidase-2 (Homo sapiens) (UniProt Q9Y3R4); details: HEK293, 1 mM
Chain of Sialidase-2 (Homo sapiens) (Q9Y3R4 whole entry): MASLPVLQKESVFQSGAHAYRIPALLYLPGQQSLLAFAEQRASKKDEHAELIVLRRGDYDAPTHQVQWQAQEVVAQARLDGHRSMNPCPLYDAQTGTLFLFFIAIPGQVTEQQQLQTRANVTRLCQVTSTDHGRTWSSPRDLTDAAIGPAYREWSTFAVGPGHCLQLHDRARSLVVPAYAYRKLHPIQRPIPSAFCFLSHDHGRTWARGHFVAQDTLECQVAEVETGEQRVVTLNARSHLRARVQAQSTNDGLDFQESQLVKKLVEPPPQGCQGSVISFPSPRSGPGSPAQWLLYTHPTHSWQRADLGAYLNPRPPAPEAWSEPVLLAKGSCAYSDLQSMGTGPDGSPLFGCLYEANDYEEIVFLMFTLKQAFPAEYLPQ
Description: Inhibition of Homo sapiens (human) NEU2 expressed in HEK293 cells using 4MU-NeuAc as substrate at 1 mM after 10 to 30 min by fluorometric analysis

[3] = molecular target: T3, Sialidase-3 (Homo sapiens) (UniProt Q9UQ49); experiment: Inhibition of Homo sapiens (human) NEU3 expressed in HEK293 cells using mixed ganglioside as substrate at 1 mM after 10 to 30 min by fluorometric analysis; format: cell-based
T3 sequence (whole entry): T1 sequence (Q9UQ49 whole entry)

[4] = molecular target: T4, Sialidase-4 (Homo sapiens) (UniProt Q8WWR8); experiment: Inhibition of Homo sapiens (human) NEU4 expressed in HEK293 cells using 4MU-NeuAc as substrate at 1 mM after 10 to 30 min by fluorometric analysis
T4 sequence (whole entry): T2 sequence (Q8WWR8 whole entry)

IC50 (Sialidase-3) | inhibition [1] | IC50 (Sialidase-4) | inhibition [2] | inhibition [3] | inhibition [4] | Compound
60 µM | – | – | – | – | – | CC(=O)N[C@H]1[C@H]([C@@H](O)[C@@H](O)CO)OC(C(=O)O)=C[C@@H]1O
> 5000 µM | inactive | > 5000 µM | – | – | – | CC(=O)Nc1cc(F)c(C(=O)O)cc1NC(=O)c1ccc(-c2ccccc2)cc1
920 µM | 7% | 670 µM | 40% | 56% | 56% | O=C(O)c1oc(C(=O)O)c(OCc2ccccc2)c1OCc1ccccc1
